Assay results published in ChEMBL document CHEMBL1201862, “PubChem BioAssay data set” (2004).
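The compound was tested at five concentrations on cells cultured in 96-well plates, with a 48-hour exposure period. At the GI50, growth is halved.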 Calls of active or inactive are those of the source. No stated cut-off is given here; in the data, active = GI50 up to about 1.1 µM and inactive = higher.

What was measured:
Test in all cases: NCI tumour cell line growth inhibition, 48 h
[1] = test system: OVCAR-4
[2] = test system: SK-MEL-5
[3] = test system: U-251
[4] = test system: HL-60
[5] = test system: SNB-19
[6] = test system: SN12C
[7] = test system: K562
[8] = test system: SF-539
[9] = test system: SK-OV-3
[10] = test system: RXF 393
[11] = test system: UACC-257
[12] = test system: SK-MEL-2
[13] = test system: KM12
[14] = test system: HCT-116
[15] = test system: DU-145
[16] = test system: MDA-MB-231
[17] = test system: COLO 205
[18] = test system: HOP-62
[19] = test system: T47D

Measured: GI50

O=C(NCCN1CCOCC1)c1ccc(I)cc1
inactive: [1] > 100 µM | [2] > 100 µM | [3] > 100 µM | [4] > 100 µM | [5] > 100 µM | [6] > 100 µM | [7] > 100 µM | [8] > 100 µM | [9] > 100 µM

CCOC(=O)CC(=O)Nc1c(C(=O)OCC)sc2nc(SC)nc(Nc3ccc(OC)c(OC)c3)c12
inactive: [1] 66.2 µM | [10] 10.7 µM | [2] > 100 µM | [3] 6.4 µM | [4] > 100 µM | [11] > 100 µM | [12] 25.6 µM | [13] 80.5 µM | [14] 39.4 µM | [15] 39.7 µM | [16] 18.5 µM | [6] 60.3 µM | [8] 9.86 µM | [17] > 100 µM

COC(=O)CNC(=O)C(CSC(=O)OCC1c2ccccc2-c2ccccc21)NC(=O)CCC(NC(=O)OCC1c2ccccc2-c2ccccc21)C(=O)OC (centres undefined)
inactive: [1] 16.9 µM | [10] 16.8 µM | [2] 78.7 µM | [4] 19.1 µM | [11] 32.5 µM | [18] 21.1 µM | [12] 16.9 µM | [5] 23.8 µM | [14] 17.5 µM | [15] > 100 µM | [16] 16.6 µM | [6] > 100 µM | [7] 28.7 µM | [8] 19.2 µM | [17] 29.4 µM | [9] 30.3 µM

COc1cccc(CC2C(=O)N/C(=N\C(C)=O)N2C)c1OC(C)=O (centres undefined)
inactive: [1] > 100 µM | [10] > 100 µM | [2] > 100 µM | [3] > 100 µM | [4] > 100 µM | [11] > 100 µM | [18] > 100 µM | [12] > 100 µM | [13] > 100 µM | [5] > 100 µM | [14] > 100 µM | [15] > 100 µM | [16] > 100 µM | [6] > 100 µM | [8] > 100 µM | [17] > 100 µM | [9] > 100 µM

N#CC(C#N)/N=N/c1ccc(-c2nc3ccccc3s2)cc1
inactive: [1] 6.49 µM | [10] 4.23 µM | [2] 2.74 µM | [11] 3.1 µM | [12] 4.73 µM | [14] 3.78 µM | [15] 5.79 µM | [19] 2.22 µM | [6] 2.78 µM | [8] 9.33 µM | [17] 4.04 µM

O=C(O)c1ccc(/N=N/c2cc(S(=O)(=O)O)c3cccnc3c2O)cc1
inactive: [1] > 100 µM | [10] > 100 µM | [2] > 100 µM | [3] > 100 µM | [4] > 100 µM | [11] > 100 µM | [18] > 100 µM | [12] > 100 µM | [13] > 100 µM | [5] > 100 µM | [14] > 100 µM | [6] > 100 µM | [7] > 100 µM | [8] > 100 µM | [17] > 100 µM | [9] > 100 µM

CCCCCCCCCN1CCC(=O)C(C(=O)OC)C1 (centres undefined)
inactive: [1] 2.29 µM | [10] 17.1 µM | [2] 14.2 µM | [4] 1.53 µM | [11] 11 µM | [18] 16.9 µM | [13] 3.08 µM | [14] 13.9 µM | [15] 15.1 µM | [19] 10.4 µM | [6] 16 µM | [8] 18.2 µM | [17] 15.1 µM | [9] 16.4 µM

C/C(=N\Nc1ccc([N+](=O)[O-])cc1[N+](=O)[O-])c1sc(-n2nc(-c3ccccc3)cc2-c2ccccc2)nc1C
inactive: [1] 43.9 µM | [2] 34.4 µM | [3] 42.7 µM | [4] 12.6 µM | [11] 20.8 µM | [18] 70.3 µM | [13] 11.3 µM | [5] 93.5 µM | [14] 29.4 µM | [15] 35.5 µM | [19] 13.8 µM | [16] 44.4 µM | [6] 50.1 µM | [8] 46.8 µM | [17] 24.8 µM | [9] 24.5 µM

Cc1cn([C@@H]2C[C@H](CO)[C@@H]2O)c(=O)[nH]c1=O
inactive: [1] > 100 µM | [10] > 100 µM | [2] > 100 µM | [3] > 100 µM | [4] > 100 µM | [11] > 100 µM | [18] > 100 µM | [12] > 100 µM | [13] > 100 µM | [14] > 100 µM | [15] > 100 µM | [16] > 100 µM | [6] > 100 µM | [7] > 100 µM | [8] > 100 µM | [17] > 100 µM

N#Cc1ccc2[nH]c3c(c2c1)CC(=O)Nc1ccccc1-3 [PAULLONE 2]
inactive: [1] > 100 µM | [10] > 100 µM | [2] > 100 µM | [3] > 100 µM | [4] > 100 µM | [11] > 100 µM | [18] > 100 µM | [12] > 100 µM | [5] > 100 µM | [14] 21.5 µM | [19] > 100 µM | [16] > 100 µM | [7] > 100 µM | [8] > 100 µM | [17] > 100 µM
